Results published in PubChem BioAssay (NCI).
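Cultured in 96-well plates, cells were exposed to test compound for 48 hours across five concentrations. The concentration for 50% growth inhibition is given as GI50. At the TGI there is no net growth.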

Key:
Assay in all cases: growth of human tumour cells (NCI), 48 h
[1] = system: SF-295 CNS
[2] = system: ACHN renal
[3] = system: OVCAR-3 ovarian
[4] = system: HOP-92 NSCLC
[5] = system: 786-0 renal
[6] = system: A549 NSCLC
[7] = system: NCI/ADR-RES ovarian
[8] = system: SNB-75 CNS
[9] = system: UACC-257 melanoma
[10] = system: SK-OV-3 ovarian
[11] = system: SW-620 colon
[12] = system: OVCAR-5 ovarian
[13] = system: HCT-116 colon
[14] = system: EKVX NSCLC
[15] = system: IGROV1 ovarian
[16] = system: MALME-3M melanoma
[17] = system: RXF 393 renal
[18] = system: PC-3 prostate
[19] = system: SNB-19 CNS
[20] = system: A498 renal
[21] = system: TK-10 renal
[22] = system: NCI-H460 lung
[23] = system: NCI-H522 lung
[24] = system: K-562 leukemia
[25] = system: HL-60(TB) leukemia
[26] = system: SK-MEL-5 melanoma
[27] = system: COLO 205 colon
[28] = system: HCC-2998 colon
[29] = system: NCI-H226 lung
[30] = system: MCF7 breast
[31] = system: HT29 colon
[32] = system: MOLT-4 leukemia
[33] = system: SN12C renal
[34] = system: SF-539 CNS
[35] = system: SK-MEL-28 melanoma
[36] = system: MDA-MB-435
[37] = system: DU-145 prostate
[38] = system: U251 CNS
[39] = system: UO-31 renal
[40] = system: SF-268 CNS
[41] = system: HS 578T breast
[42] = system: HCT-15 colon
[43] = system: HOP-62 NSCLC
[44] = system: T-47D breast
[45] = system: RPMI-8226 leukemia
[46] = system: MDA-MB-231 breast
[47] = system: SR leukemia
[48] = system: OVCAR-4 ovarian
[49] = system: M14 melanoma
[50] = system: OVCAR-8 ovarian
[51] = system: LOX IMVI melanoma
[52] = system: KM12 colon
[53] = system: BT-549 breast
[54] = system: UACC-62 melanoma
[55] = system: CAKI-1 renal
[56] = system: SK-MEL-2 melanoma

## COc1ccc2c(c1)Cc1c-2c(NN)nc2ccccc12
[1]
  GI50: 25.7 µM
  TGI: > 100 µM
[2]
  GI50: 44.7 µM
  TGI: > 100 µM
[3]
  GI50: 16.5 µM
  TGI: 38.4 µM
[4]
  GI50: 22.8 µM
  TGI: 71.6 µM
[5]
  GI50: 40.4 µM
  TGI: > 100 µM
[6]
  GI50: 33.6 µM
  TGI: > 100 µM
[7]
  GI50: 21 µM
  TGI: > 100 µM
[8]
  GI50: 42.8 µM
  TGI: > 100 µM
[9]
  GI50: 53.7 µM
  TGI: > 100 µM
[10]
  GI50: 16.9 µM
  TGI: 77.6 µM
[11]
  GI50: 21.1 µM
  TGI: > 100 µM
[12]
  GI50: 35.5 µM
  TGI: > 100 µM
[13]
  GI50: 24.4 µM
  TGI: 75.7 µM
[14]
  GI50: 66.1 µM
  TGI: > 100 µM
[15]
  GI50: 24.6 µM
  TGI: > 100 µM
[16]
  GI50: > 100 µM
  TGI: > 100 µM
[17]
  GI50: 30.5 µM
  TGI: > 100 µM
[18]
  GI50: 19.8 µM
  TGI: > 100 µM
[19]
  GI50: 31.3 µM
  TGI: > 100 µM
[20]
  GI50: > 100 µM
  TGI: > 100 µM
[21]
  GI50: 57.3 µM
  TGI: > 100 µM
[22]
  GI50: 14.9 µM
  TGI: 69 µM
[23]
  GI50: 20.2 µM
  TGI: 58.5 µM
[24]
  GI50: 6.65 µM
  TGI: 85.1 µM
[25]
  GI50: 27.9 µM
  TGI: > 100 µM
[26]
  GI50: 22 µM
  TGI: 58.3 µM
[27]
  GI50: 22.1 µM
  TGI: > 100 µM
[28]
  GI50: 28.4 µM
  TGI: > 100 µM
[29]
  GI50: 64 µM
  TGI: > 100 µM
[30]
  GI50: 5.66 µM
  TGI: 48.5 µM
[31]
  GI50: 31.5 µM
  TGI: > 100 µM
[32]
  GI50: 27.3 µM
  TGI: > 100 µM
[33]
  GI50: 40.3 µM
  TGI: > 100 µM
[34]
  GI50: 36.3 µM
  TGI: > 100 µM
[35]
  GI50: 60.5 µM
  TGI: > 100 µM
[36]
  GI50: 3.8 µM
  TGI: > 100 µM
[37]
  GI50: 32 µM
  TGI: > 100 µM
[38]
  GI50: 21.5 µM
  TGI: 68.7 µM
[39]
  GI50: 25.7 µM
  TGI: > 100 µM
[40]
  GI50: 25.3 µM
  TGI: > 100 µM
[41]
  GI50: 35.8 µM
  TGI: > 100 µM
[42]
  GI50: 25.5 µM
  TGI: > 100 µM
[43]
  GI50: 56.6 µM
  TGI: > 100 µM
[44]
  GI50: 26.5 µM
  TGI: > 100 µM
[45]
  GI50: 17.6 µM
  TGI: 48.3 µM
[46]
  GI50: 36 µM
  TGI: > 100 µM
[47]
  GI50: 9.94 µM
  TGI: > 100 µM
[48]
  GI50: 31.1 µM
  TGI: > 100 µM
[49]
  GI50: 40.1 µM
  TGI: > 100 µM
[50]
  GI50: 23.8 µM
  TGI: > 100 µM
[51]
  GI50: 21.6 µM
  TGI: 78.8 µM
[52]
  GI50: 13.8 µM
  TGI: > 100 µM
[53]
  GI50: 50.4 µM
  TGI: > 100 µM
[54]
  GI50: 25 µM
  TGI: > 100 µM
[55]
  GI50: 39.8 µM
  TGI: > 100 µM
[56]
  GI50: 33.1 µM
  TGI: > 100 µM
